In ChEMBL document CHEMBL2074243, “Mitochondria-targeting drug oligomycin blocked P-glycoprotein activity and triggered apoptosis in doxorubicin-resistant HepG2 cells” (Chemotherapy, 2004):

molecular target: ATP-dependent translocase ABCB1 (Homo sapiens, UniProt P08183); assay: TP_TRANSPORTER: drug resistance in R-HepG2 cells; format: functional, cell-based
Sequence (P08183 whole entry): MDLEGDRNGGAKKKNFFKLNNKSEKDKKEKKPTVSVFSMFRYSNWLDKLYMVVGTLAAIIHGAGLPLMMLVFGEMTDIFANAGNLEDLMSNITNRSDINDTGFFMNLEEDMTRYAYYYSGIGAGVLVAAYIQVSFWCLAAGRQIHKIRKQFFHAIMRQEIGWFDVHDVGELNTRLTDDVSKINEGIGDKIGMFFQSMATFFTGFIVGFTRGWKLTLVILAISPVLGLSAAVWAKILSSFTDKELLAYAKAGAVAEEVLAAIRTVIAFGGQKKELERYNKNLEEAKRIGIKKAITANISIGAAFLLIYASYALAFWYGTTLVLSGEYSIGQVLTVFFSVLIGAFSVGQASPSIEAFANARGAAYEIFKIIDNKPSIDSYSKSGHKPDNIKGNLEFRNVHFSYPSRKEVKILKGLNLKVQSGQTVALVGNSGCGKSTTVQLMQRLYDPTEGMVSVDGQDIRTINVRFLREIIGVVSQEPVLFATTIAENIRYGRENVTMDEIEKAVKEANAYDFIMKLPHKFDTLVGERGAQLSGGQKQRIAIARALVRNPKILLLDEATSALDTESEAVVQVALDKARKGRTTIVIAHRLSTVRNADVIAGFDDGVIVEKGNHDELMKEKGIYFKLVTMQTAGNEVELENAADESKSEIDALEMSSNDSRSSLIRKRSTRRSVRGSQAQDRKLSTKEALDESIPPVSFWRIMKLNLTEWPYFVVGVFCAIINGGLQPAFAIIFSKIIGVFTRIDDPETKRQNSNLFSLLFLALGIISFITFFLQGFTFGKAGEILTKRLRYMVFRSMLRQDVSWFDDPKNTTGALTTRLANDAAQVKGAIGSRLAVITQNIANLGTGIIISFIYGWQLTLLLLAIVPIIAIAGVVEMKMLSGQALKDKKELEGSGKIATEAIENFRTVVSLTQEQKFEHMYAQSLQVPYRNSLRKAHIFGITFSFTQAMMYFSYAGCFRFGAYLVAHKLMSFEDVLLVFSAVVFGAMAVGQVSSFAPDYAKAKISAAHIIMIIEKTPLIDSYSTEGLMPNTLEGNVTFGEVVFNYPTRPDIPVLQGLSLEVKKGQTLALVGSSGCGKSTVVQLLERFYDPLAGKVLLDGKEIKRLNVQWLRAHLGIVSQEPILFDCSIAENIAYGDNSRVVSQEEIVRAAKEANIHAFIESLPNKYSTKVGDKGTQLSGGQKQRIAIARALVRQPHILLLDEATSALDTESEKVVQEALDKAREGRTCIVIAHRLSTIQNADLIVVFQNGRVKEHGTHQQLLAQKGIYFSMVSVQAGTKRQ

Activity, substrate [+]:
COc1cccc2c1C(=O)c1c(O)c3c(c(O)c1C2=O)C[C@@](O)(C(=O)CO)C[C@@H]3O[C@H]1C[C@H](N)[C@H](O)[C@H](C)O1 [DOXORUBICIN], CC(=O)O[C@H]1C(=O)[C@@]2(C)[C@H]([C@H](OC(=O)c3ccccc3)[C@]3(O)C[C@H](OC(=O)[C@H](O)[C@@H](NC(=O)c4ccccc4)c4ccccc4)C(C)=C1C3(C)C)[C@]1(OC(C)=O)CO[C@@H]1C[C@@H]2O [PACLITAXEL], CISPLATIN
